Experimental data taken from PubChem BioAssay AID1996.
In brackets after ≈: the same amount, converted by molar mass.

Conditions: buffer; pH 7.4; 200.0 µM

| SMILES | solubility kinetic |
| --- | --- |
| CCOc1cc(/C=C/C(=O)OCC(=O)NCC2CCCO2)cc(Cl)c1OC (centres undefined) | 52.7 µg/mL (≈ 132 µM) |
| O=C(NC1=NCCS1)c1ccccc1Cl | > 36.1 µg/mL |
| COc1cc(/C=C/C(=O)OCC(=O)NCCCc2ccccc2)cc(OC)c1OC | 27.8 µg/mL (≈ 67.2 µM) |
| Cc1ccc(OCCSc2nc3ccccc3n2CC(=O)O)cc1 | > 51.4 µg/mL |
| COc1ccc(C(=O)OCC(=O)NC2CCCC2)cc1OC | > 46.1 µg/mL |
| Cn1c(=O)[nH]c(=O)c2c1[nH]c(=S)n2Cc1ccccc1 | > 43.2 µg/mL |
| O=CN1CCN(C(=S)NC(=O)c2ccc(Cl)cc2)CC1 | 44.3 µg/mL (≈ 142 µM) |
| CCOc1nc(Nc2ccc(OC)cc2)nc(N2CCOCC2)n1 | 4.8 µg/mL (≈ 14.5 µM) |
| O=C(Nc1ncccc1O)c1ccc2c(c1)OCCO2 | > 40.8 µg/mL |
| Cc1ccccc1COC(=O)c1cc([N+](=O)[O-])ccc1N1CCOCC1 | 5.8 µg/mL (≈ 16.3 µM) |
| CN(C)/C=C/C(=O)C(F)(F)F | 17.9 µg/mL (≈ 107 µM) |
| O=C(NC1=NCCS1)c1ccc(C(F)(F)F)cc1 | 6.1 µg/mL (≈ 22.2 µM) |
| CCOc1ccccc1NC(=O)Nc1ccc2c(c1)CCC2 | < 0.3 µg/mL |
| COc1ccc(/C=C2\SC(=O)N(CC(=O)Nc3cccc(C)c3)C2=O)cc1O | 0.6 µg/mL (≈ 1.51 µM) |
| COc1ccc(N2CCN(C(=O)NC(=O)c3ccc(Cl)cc3)CC2)cc1 | 3.1 µg/mL (≈ 8.29 µM) |
| C=CCn1cc(C=C2C(=O)NC(=O)NC2=O)c2ccccc21 | 3.6 µg/mL (≈ 12.2 µM) |
| Cc1ccc(/C=C2/C(=O)NC(=O)N(Cc3ccc(F)cc3)C2=O)o1 | 11.4 µg/mL (≈ 34.7 µM) |
| CSc1nc(-c2ccccc2)c(C#N)c(=O)[nH]1 | > 36.5 µg/mL |
| CC1(C)C2([N+](=O)[O-])CN3CC1([N+](=O)[O-])CN(C2)C3c1ccccn1 (centres undefined) | 7.9 µg/mL (≈ 23.7 µM) |
| COc1ccc(NC(=O)c2cc([N+](=O)[O-])ccc2N2CCCCC2)cc1 | 0.3 µg/mL (≈ 0.844 µM) |

| SMILES | solubility kinetic |
| --- | --- |
| O=C(NCc1ccco1)c1ccc2c(c1)N(Cc1ccccc1)CCS2 | 12.9 µg/mL (≈ 35.4 µM) |
| C/C(=C\C(=O)c1ncc(C(F)(F)F)cc1Cl)N(C)C | 41 µg/mL (≈ 140 µM) |
| Cc1ccn2cc(-c3cccc(NC(=O)CCC(=O)O)c3)nc2c1 | > 48.5 µg/mL |
| Cc1nc(Nc2nc3ccccc3o2)nc(C)c1C | 15.8 µg/mL (≈ 62.1 µM) |
| Cc1ccc(NC2=CC(=O)CC(C)(C)C2)cc1F | 31.5 µg/mL (≈ 127 µM) |
| CCOc1ccc2[nH]c3c(NCC(C)C)ncnc3c2c1 | 5.1 µg/mL (≈ 17.9 µM) |
| CN1CCN(Cc2cn(C)c3ccccc23)CC1CCO (centres undefined) | 32.3 µg/mL (≈ 112 µM) |
| Cc1cc(C(=O)Nc2ccc(F)c(Cl)c2)on1 | 18.3 µg/mL (≈ 71.9 µM) |
| CC(C)(C)c1csc(NC(=O)CCc2ccccc2)n1 | 2.1 µg/mL (≈ 7.28 µM) |
| Cc1ccc(NC(=S)N2CCCCCC2)c(C)c1 | > 39.4 µg/mL |
| COc1ccc(NS(=O)(=O)c2cc(NC(=O)c3ccccc3)ccc2N2CCOCC2)cc1 | 13.1 µg/mL (≈ 28 µM) |
| Cc1cc(=O)n2c(-c3ccc(Cl)cc3)csc2n1 | 7.9 µg/mL (≈ 28.5 µM) |
| CCCCOc1ccc(CON(C(C)=O)C(C)=O)cc1Cl | 2.6 µg/mL (≈ 8.29 µM) |
| CCN(CC)c1ccc(CNCCc2ccc(F)cc2)cc1.Cl | > 50.5 µg/mL |
| COc1ccc2nc(Nc3ccccc3OC)sc2c1 | 3.8 µg/mL (≈ 13.3 µM) |
| CC1(C)CC(=O)C2=C(C1)Nc1ccccc1S2 | 3 µg/mL (≈ 12.2 µM) |
| Cc1ccc(C(=O)NC2CCCC2)s1 | 29.9 µg/mL (≈ 143 µM) |
| CS(=O)(=O)c1ccc(C(=O)OCC(=O)Nc2cccnc2Cl)cc1[N+](=O)[O-] | > 62.1 µg/mL |
| Cc1cccc(NC(=O)c2cc3ccccc3nc2C)c1 | 29.3 µg/mL (≈ 106 µM) |
| COc1cc(CNC(=O)C2CC2)ccc1OCc1ccccc1 | 8.4 µg/mL (≈ 27 µM) |

| SMILES | solubility kinetic |
| --- | --- |
| COc1cc(NC(=O)COC(=O)C=C(C)C)c(C)cc1[N+](=O)[O-] | 17.2 µg/mL (≈ 53.4 µM) |
| CC(C)(C)c1ccccc1NC(=O)CN1C(=O)NC2(CCCC2)C1=O | 6.1 µg/mL (≈ 17.8 µM) |
| CCN(Cc1ccccc1)C(=O)CSc1n[nH]c(N)n1 | > 43.7 µg/mL |
| COc1cc(NC(=O)CN2CCCCCC2)cc(OC)c1 | > 43.9 µg/mL |
| CC(Cl)C(=O)N1c2ccccc2CCc2ccccc21 (centres undefined) | 41.8 µg/mL (≈ 146 µM) |
| Cc1onc(-c2ccccc2)c1C(=O)N(Cc1ccccn1)Cc1ccccn1 | > 57.7 µg/mL |
| OCCN(CCO)c1nc2ccccc2[nH]1 | > 33.2 µg/mL |
| COc1ccc(C(=O)NC(=S)N2CC(C)OC(C)C2)cc1OC (centres undefined) | > 50.8 µg/mL |
| NC(=O)NC(=O)C(Nc1ccc2c(c1)CCC2)c1ccccc1 (centres undefined) | 7.9 µg/mL (≈ 25.5 µM) |
| COc1ccc(NC(=O)CN(C)CC(=O)NCC2CCCCC2)cc1 | > 52.1 µg/mL |
| O=C(CSC(=S)N1CCCC1)Nc1cc2c(cc1Br)OCCO2 | < 0.4 µg/mL |
| CCCC(=O)Nc1cc(S(=O)(=O)N2CCOCC2)ccc1N1CCCCC1 | > 59.3 µg/mL |
| OC(CNC1Cc2ccccc2C1)COc1ccc(Cl)cc1 (centres undefined) | > 47.7 µg/mL |
| O=C(OCc1ccc(F)cc1)c1cccnc1Cl | 21.7 µg/mL (≈ 81.7 µM) |
| CCOC(=O)c1nc2c(=O)n(C)c(=O)n(C)c2n(C)c1=O | > 44.1 µg/mL |
| CCN(CC)CC#CCC(O)(c1ccccc1)c1ccccc1 | > 46.1 µg/mL |
| COc1cc(S(=O)(=O)N2CCOCC2)ccc1NC(=O)COC(=O)/C=C/c1cc(OC)c(OC)c(OC)c1 | 4.6 µg/mL (≈ 8.35 µM) |
| COc1ccc(OCC(O)CNC(=O)Nc2cc(F)ccc2C)cc1 (centres undefined) | 17.2 µg/mL (≈ 49.4 µM) |
| Cc1ccc(N2CCN(c3ccc([N+](=O)[O-])cn3)CC2)c(C)c1 | 0.3 µg/mL (≈ 0.96 µM) |
